Results as given in patent US9422357.

Conditions: disulfide bond; 38-membered ring

## S1C(disialo)•N19C(GlcNAc)-SRIF28
  ring closure, yield after HPLC: 59%
